These are literature values, as cited in PubChem BioAssay AID1259410 (Chemical Carcinogenesis Research Information System (CCRIS), 2018).

The data set relates to rodent tumor promotion studies, tumor incidence. The experiment in a line: CCRIS tumor promotion studies.

As for `O=C1NC(=O)C(c2ccccc2)(c2ccccc2)N1`, the outcome was “liver: hepatocellular adenoma” (Carcinogen: N,N-DIETHYLNITROSAMINE, 55-18-5, Doses [Carcinogen]: 75 MG/KG IN SALINE ONCE AT 5 WK OF AGE, Doses [Promoter]: 0, 500, 1500 PPM IN DIET FOR 45 WK BEGINNING 2 WK POST CARCINOGEN TREATMENT (STUDY DURATION: 47 WK), Doses [Promoter]: 0, 500, 1500 PPM IN DIET FOR 45 WK BEGINNING 2 WK POST CARCINOGEN TREATMENT (STUDY DURATION: 47 WK), Route [Carcinogen]: INTRAPERITONEAL, Route [Promoter]: ORAL, Species: RAT, Strain/Sex: F344/MALE); “liver: hepatocellular adenoma” (Carcinogen: N,N-DIETHYLNITROSAMINE, 55-18-5, Doses [Carcinogen]: 75 MG/KG IN SALINE ONCE AT 5 WK OF AGE, Doses [Promoter]: 0, 500, 1500 PPM IN DIET FOR 46-72 WK BEGINNING 2 WK POST CARCINOGEN TREATMENT (STUDY DURATION: 46-72 WK), Doses [Promoter]: 0, 500, 1500 PPM IN DIET FOR 46-72 WK BEGINNING 2 WK POST CARCINOGEN TREATMENT (STUDY DURATION: 46-72 WK), Route [Carcinogen]: INTRAPERITONEAL, Route [Promoter]: ORAL, Species: RAT, Strain/Sex: F344/MALE); “liver: tumor” (Carcinogen: N-NITROSODIETHYLAMINE, 55-18-5, Doses [Carcinogen]: 90 MG/KG BW IN TRICAPRYLIN ONCE, Doses [Promoter]: 0, 500 PPM IN DIET FOR 53 WK BEGINNING 2 WK POST CARCINOGEN DOSE (STUDY DURATION: 55 WK), Route [Carcinogen]: INTRAPERITONEAL, Route [Promoter]: ORAL, Species: MOUSE, Strain/Sex: D2B6F1/MALE).

With `Cc1ncc([N+](=O)[O-])n1CCO`, the outcome is reported as “colon: tumor” (Carcinogen: 1,2-DIMETHYLHYDRAZINE, 540-73-8, Doses [Carcinogen]: 40 MG/KG/WK FOR 20 WK, Doses [Promoter]: 0, 18 MG/KG/D FOR 20 WK (STUDY DURATION: 20 WK), Route [Carcinogen]: SUBCUTANEOUS, Route [Promoter]: GAVAGE, Species: RAT, Strain/Sex: WISTAR/MALE) and “skin: tumor” (Carcinogen: UV IRRADIATION, Doses [Carcinogen]: 0.53 J/CM2 INCREASED BY 20% EVERY 2 WK TO 1.60 J/CM2 AND MAINTAINED AT 1.60 J/CM2 UNTIL DEATH, ADMINISTERED 5 D/WK FOR 1, Doses [Promoter]: 0, 15 UG/G BEGINNING 2 WK POST FIRST CARCINOGEN DOSE ADMINISTERED 2 HR PRIOR TO EACH CARCINOGEN DOSE (STUDY DURATION: 30, Route [Carcinogen]: DERMAL, Route [Promoter]: INTRAPERITONEAL, Species: MOUSE, Strain/Sex: SKH/HRL/FEMALE).

On to `CCC(CC)C(=O)NC(N)=O`, for which the outcome (Carcinogen: N-NITROSODIETHYLAMINE, 55-18-5, Doses [Carcinogen]: 75 MG IN STERILE SALINE ONCE, Doses [Promoter]: 0, 341 PPM IN DIET BEGINNING 2 WK POST CARCINOGEN DOSE AND CONTINUING FOR DURATION OF STUDY (STUDY DURATION: 78 WK), Route [Carcinogen]: INTRAPERITONEAL, Route [Promoter]: ORAL, Species: RAT, Strain/Sex: F344/MALE) was “liver: hepatocellular adenoma; kidney: renal tubular cell adenoma or carcinoma”.

In the case of `Cc1c2ccccc2c(C)c2c1ccc1ccccc12`, the outcome (Carcinogen: Diethylstilbestrol, 56-53-1, Doses [Carcinogen]: 0, 0.1, 1, 10, 100 ug in 0.05 ml sesame oil once at birth, Doses [Carcinogen]: 0, 0.1, 1, 10, 100 ug in 0.05 ml sesame oil once at birth, Doses [Promoter]: 10 mg in 1 ml sesame oil once by gastric intubation at 50 days of age, study duration 175 or 300 days of age, Route [Carcinogen]: Subcutaneous, Route [Promoter]: Oral, Species: Rat, Strain/Sex: Sprague-Dawley/Female (22/control group; 15; 21; 13; 16/experimental group)) was “mammary carcinomas: 50, 54, 91, 39, 19% at 175 days and 77, 87, 100, 85, 75% at”.

With `CC1=C(/C=C/C(C)=C/C=C/C(C)=C/C(=O)O)C(C)(C)CCC1`, the outcome (Carcinogen: 7,12-DIMETHYLBENZ[A]ANTHRACENE, 57-97-6, Doses [Carcinogen]: 50 NMOL IN 200 µL ACETONE 2/WK FOR 16 WK, Doses [Promoter]: 0, 0.5, 25 NMOL IN 200 µL ACETONE APPLIED 1 HR PRIOR TO CARCINOGEN DOSES 2/WK FOR 16 WK (STUDY DURATION: 16 WK), Doses [Promoter]: 0, 0.5, 25 NMOL IN 200 µL ACETONE APPLIED 1 HR PRIOR TO CARCINOGEN DOSES 2/WK FOR 16 WK (STUDY DURATION: 16 WK), Route [Carcinogen]: DERMAL, Route [Promoter]: DERMAL, Species: MOUSE, Strain/Sex: CD-1/FEMALE) is given as “skin: tumors”.

As to `C[C@]12CC[C@@H]3c4ccc(OS(=O)(=O)O)cc4CC[C@H]3[C@@H]1CCC2=O`, for the setting “Carcinogen: 7,12-Dimethylbenz[a]anthrene, 57-97-6, Doses [Carcinogen]: 5 mg in corn oil, intragastric, once, Doses [Promoter]: 100 ng/ml in drinking water, study duration 20 wk, Route [Carcinogen]: Oral, Route [Promoter]: Oral, Species: Rat, Strain/Sex: Sprague-Dawley/Female (16/group)”, the outcome is “mammary gland: tumor”.

With `Cc1ccccc1O`, the outcome (Carcinogen: 7,12-DIMETHYLBENZ(A)ANTHRACENE, Doses [Carcinogen]: DERMAL, Route [Carcinogen]: DERMAL, Route [Promoter]: DERMAL, Species: MOUSE, Strain/Sex: FEMALE) was “integumentary system (skin)”.

Take `CC/C(=C(\c1ccccc1)c1ccc(OCCN(C)C)cc1)c1ccccc1`: under “Carcinogen: P-DIMETHYLAMINOAZOBENZENE [60-11-7], Doses [Carcinogen]: 0.5% IN DIET FOR 28 WK (STUDY DURATION: 20 WK), Doses [Promoter]: 0, 0.025% IN DIET FOR 25 WK BEGINNING 3 WK POST FIRST CARCINOGEN DOSE (STUDY DURATION: 28 WK), Route [Carcinogen]: ORAL, Route [Promoter]: ORAL, Species: MOUSE, Strain/Sex: CF-1/MALE”, the outcome was “liver: hepatocellular carcinoma”.

On to `O=C([O-])/C=C/C(=O)[O-].[Fe+2]`, for which the outcome by setting is: (Carcinogen: DIMETHYLHYDRAZINE, 540-73-8, Doses [Carcinogen]: 20 MG/KG 1/WK FOR 10 WK, Doses [Promoter]: 0, 3.5% IN DIET FOR 10 WK BEGINNING POST CARCINOGEN TREATMENT (STUDY DURATION: 20 WK), Route [Carcinogen]: SUBCUTANEOUS, Route [Promoter]: ORAL, Species: MOUSE, Strain/Sex: NMRI/MALE) “colon/rectum: tumor”; (Carcinogen: DIMETHYLHYDRAZINE, 540-73-8, Doses [Carcinogen]: 20 MG/KG 1/WK FOR 10 WK, Doses [Promoter]: 0, 3.5% IN DIET FOR 10 WK CONCURRENTLY WITH CARCINOGEN TREATMENT (STUDY DURATION: 20 WK), Route [Carcinogen]: SUBCUTANEOUS, Route [Promoter]: ORAL, Species: MOUSE, Strain/Sex: NMRI/MALE) “colon/rectum: tumor”.
